Reference: patent publication US20220304946A1 (priority 2021, published 2022)
“Also recorded” adds a separate entry of the source. Where two headings read alike, the source gives them in different places. Where a SMILES comes first, the peptide text is derived from it. Bridges are numbered along the chain shown (N, C = ends). [ ]: non-standard residue; d: D form. The star is where a group is joined. Ileψ(thiazoline)Cys = CC[C@H](C)[C@H](N)C1=N[C@H](C(=O)*)CS1; dOrn = NCCC[C@@H](N)C(=O)O

Assays:
[1] = molecular target: prolyl endopeptidase (PEP) (UniProt P27028); assay: PEP inhibitory activity assay (modified Yoshimoto et al. method, Z-Gly-Pro-pNA substrate); format: biochemical
Sequence of prolyl endopeptidase (PEP) (P27028 whole entry): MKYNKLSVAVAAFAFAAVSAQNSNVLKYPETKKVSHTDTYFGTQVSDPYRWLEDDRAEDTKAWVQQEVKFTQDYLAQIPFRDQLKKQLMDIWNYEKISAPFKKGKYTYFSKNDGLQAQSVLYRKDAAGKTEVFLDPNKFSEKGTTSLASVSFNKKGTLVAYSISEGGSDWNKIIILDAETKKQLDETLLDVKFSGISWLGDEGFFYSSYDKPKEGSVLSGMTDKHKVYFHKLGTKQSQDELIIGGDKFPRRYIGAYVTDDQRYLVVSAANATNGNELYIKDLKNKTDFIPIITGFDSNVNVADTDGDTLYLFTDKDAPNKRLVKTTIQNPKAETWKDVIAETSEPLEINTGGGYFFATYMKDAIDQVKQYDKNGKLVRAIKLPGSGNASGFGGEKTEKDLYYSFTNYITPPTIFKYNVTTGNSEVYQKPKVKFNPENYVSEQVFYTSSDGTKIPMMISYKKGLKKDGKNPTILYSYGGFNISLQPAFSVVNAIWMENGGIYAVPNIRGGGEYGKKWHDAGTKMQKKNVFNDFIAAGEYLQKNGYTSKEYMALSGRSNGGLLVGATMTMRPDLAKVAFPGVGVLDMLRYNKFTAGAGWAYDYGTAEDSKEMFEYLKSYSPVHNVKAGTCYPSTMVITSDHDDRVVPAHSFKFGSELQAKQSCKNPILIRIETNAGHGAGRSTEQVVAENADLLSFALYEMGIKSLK
Description: PEP inhibitory activity was evaluated with minor modification of the Yoshimoto et al. method. Briefly, 150 μL of sodium phosphate buffer (50 mM, pH 7.0), and 10 μL of the test compound (0.5 mM in DMSO) were added into a 96-well plate, followed by adding 20 μL solution containing 0.02 units of PEP enzyme. In the Blank reaction, 20 μL of DMSO was added instead of the test compound, while bacitracin (0.5 mM) was used as the positive control. The incubation of the reaction mixture was carried out for 15 min at 30° C. after which a pre-read was taken at 410 nm. Next, 0.4 mM solution of Z-Gly-Pro-pNA was formed in aqueous 1,4-dioxane (40%), followed by taking the optical density (O.D.) of the reaction mixture at a wavelength of 410 nm for 40 min using a 96-well plate reader (SpectraMax-384, Molecular Devices, CA, USA).
Each reaction was repeated thrice and the differences in the results of each experiment were collectively expressed as the standard error of the mean (SEM).
% Inhibition=100−(O.D. test compound/O.D. Control)×100

[2] = molecular target: prolyl endopeptidase (PEP) (UniProt P27028); assay: Kinetic assay of PEP inhibition (Lineweaver-Burk and Dixon plots); format: biochemical
Description: That in which way it inhibits the PEP catalytic activity i.e. competitive inhibition, non-competitive inhibition, mixed or uncompetitive inhibition. […] The reaction was started post adding four various concentrations of Z-Gly-Pro-pNA (0.2 mM to 0.5 mM). The PEP enzymatic catalysis was assessed at 410 nm via a 96-well plate reader.
Next, using the obtained O.D. results, the Lineweaver-Burk and Dixon plot was generated.
Grafit version-7 (Erithacus Software Limited, UK) was employed for the Kinetic studies.

Row | SMILES | IC50 ([1]; mean ± SEM, repeated thrice; 30° C., pH 7.0; read-out: PEP inhibitory activity IC50) [µM] | IC50 ([1]; read-out: PEP inhibitory activity IC50; mean ± SEM, repeated thrice; 30° C., pH 7.0) [µM] | type of PEP inhibition ([2]; Lineweaver-Burk / Dixon plot) | Ki ([2]; read-out: Ki value, Lineweaver-Burk plot, reconfirmed by Dixon plot) [µM]
1 | CC[C@H](C)[C@H](N)C1=N[C@H](C(=O)N[C@@H](CC(C)C)C(=O)N[C@H](CCC(=O)O)C(=O)N[C@H](C(=O)N[C@H]2CCCCNC(=O)[C@H](CC(N)=O)NC(=O)[C@@H](CC(=O)O)NC(=O)[C@H](Cc3cnc[nH]3)NC(=O)[C@@H](Cc3ccccc3)NC(=O)[C@H]([C@@H](C)CC)NC(=O)[C@@H](CCCN)NC2=O)[C@@H](C)CC)CS1 [bacitracin, reference compound] ({Ileψ(thiazoline)Cys}-L[dE]IK[dOrn]I[dF]H[dD]N; lactam 4-C) | 114 ± 1.2 | – | – | –
2 | C/C=C/c1ccc(OC)cc1 [trans-anethole, (E)-1-Methoxy-4-(1-propenyl) benzene] | – | 5.7 ± 1.2 | competitively inhibited; also recorded: competitive | 5.656 ± 0.03
